Read-outs that look alike come from different tables or passages of the source.
Tests used:
[1] = system: breast cancer cell line ZR-75-1; assay: Inhibition of proliferation of breast cancer cell line ZR-75-1 (CellTiter-Glo); assay type: cell-based; settings: Homo sapiens, 240 h, proliferation of ZR-75-1 cells, 10 days of incubation, read-out: IC50 (KAT6A)
Description: Test Example 1: Experiment for Determining Inhibitory Effects of Compounds on Proliferation of Breast Cancer Cell Line ZR-75-1
ATP is an indicator of the metabolism of living cells. The CellTiter-Glo® Luminescent Cell Viability Assay is a homogeneous assay method for determining the number of viable cells by quantifying ATP.
• 1) ZR-75-1 (Cell Bank of Chinese Academy of Sciences, TCHul26) • 2) RPMI-1640 medium (Gibco, 11875-093) • 3) Fetal Bovine Serum, New Zealand (Gibco,10091-148) • 4) Penicillin-streptomycin (10,000 U/mL) (Gibco, 15140-122) • 5) Trypsin-EDTA (0.25%), containing phenol red (Gibco, 25200-072) • 6) DPBS (Shanghai BasalMedia, B210KJ) • 7) Corning® 96-well Clear Flat Bottom Ultra-Low Attachment Microplate (Corning, Cat. No. 3474) • 8) 330 μL 96 Holes Deep Well Plate, transparents, 96 Round Holes, V-shaped Bottom, Low Retention (Stellar Scientific, DP33VR-9-NS) • 9) Corning® 96-well solid white flat-bottom polystyrene microplate (Corning, Cat. No. 3917) • 10) CellTiter-Glo® Luminescent Cell Viability Assay (Promega, G7573) • 11) Countstar® BioMed automatic cell counter • 12) Trypan blue solution, 0.4% (Gibco, Cat. No. 15250061) • 13) 37° C. constant-temperature incubator (Thermo, FORMA STERI-CYCLE i160 LK) • 14) Biosafety cabinet (Thermo, 1379)
• 1) The formula of the complete medium for ZR-75-1 was as follows: 500 mL RPMI-1640+10% FBS+1% penicillin-streptomycin. • 2) Thirty minutes before cell plating, the complete medium, serum, trypsin, and DPBS for use in ZR-75-1 cell culture were pre-warmed in a water bath at 37° C. • 3) The ZR-75-1 cells were taken out of the incubator, and the medium was removed by pipetting. The cells were rinsed once with 5 mL of DPBS, and then the DPBS was discarded. • 4) The cells in the T75 culture flask were digested with 1-3 mL of (0.25%) trypsin-EDTA. After the trypsin was added, the culture flask was incubated in an incubator at 37° C. for 2-5 min, and dispersion was confirmed by microscopic examination. Tapping or agitating the culture flask was avoided to prevent disturbing the cells, which might cause cell clumping. • 5) 9 mL of the complete medium was added to terminate the digestion, thus forming a cell suspension, which was then mixed well by pipetting. • 6) Cell suspension counting: 20 μL of the cell suspension was pipetted and diluted with 20 µL of the 0.4% trypan blue solution (Gibco, Cat. No. 15250061). The total cell count and the percentage of cell viability were determined using the Countstar® BioMed automatic cell counter. Only cells with a cell viability of no less than 95% were used for the experiment. • 7) The concentration of the cell suspension was adjusted to 2000 cells/well, and the cell suspension was added to a 96-well cell culture plate at 80 μL/well. Treatment of Cells with Compounds • 1) Twenty-four hours after cell plating, the cell plate was taken out. • 2) Each compound was prepared with a complete medium. The stock solution was a 10 mM solution in DMSO, which was first diluted with the medium to 100 μM, then diluted to 1 μM, and finally subjected to a 5-fold serial dilution across a total of 9 concentration gradients. • 3) 20 μL of the compound diluted with the medium was added to each well of the cell culture plate, which already contained 80 μL of the medium. The final concentration started at 200 nM, followed by a 5-fold serial dilution across a total of 9 concentration gradients. Two replicate wells were set for each compound, and each plate could be used to test 3 compounds, with the DMSO content controlled within 0.5%. • 4) The culture medium was replenished once every three days with a complete medium containing the same concentration of the test compound, with 20 μL/well added each time.
After 10 days of incubation with the compound, the cell culture plate was taken out, and the CellTiter-Glo® reagent was added at 50 μL/well. […]

[2] = Pharmacokinetics in SD (Sprague Dawley) rats; assay type: in vivo; settings: rat, plasma, female SD rats; for half-life: read-out: T1/2 (half-life) (converted)
Description: Test Example 3: Determination of Pharmacokinetic Data of Compounds in SD (Sprague Dawley) Rats
The pharmacokinetic characteristics of some of the compounds of the present disclosure were evaluated by a pharmacokinetic experiment in SD rats.
Female SD rats aged 6-8 weeks from Shanghai Jihui Laboratory Animal Care Co., Ltd. were selected. The test animals were fasted overnight before administration, and feeding was resumed 4 h after administration. The compounds were dissolved in 5% DMSO+5% Tween 80+90% normal saline. For a single intravenous administration, the administration dose was 1 mg/kg, and the administration volume was 2 mL/kg. For a single intragastric administration, the administration dose was 2 mg/kg, and the administration volume was 10 mL/kg. Blood was collected at 0.083 h (for intravenous administration only), 0.25 h, 0.5 h, 1 h, 2 h, 4 h, 8 h, and 24 h after administration. At each indicated time point, about 150 μL of blood sample was collected from each rat via the vein and placed into an EDTA-K2 tube. Each sample was centrifuged (2000 g, 4° C., 5 min) within 15 min after sample collection to obtain plasma, which was then stored at −70° C. until analysis. The concentration of the corresponding test compound in the SD rat plasma was determined using UPLC-MS/MS.

`COc1ccc2c(c1S(=O)(=O)Nc1noc3cc(Cn4cccn4)c(F)c(OC)c13)OCCC21CCC1` [Compound 72, N-(6-((1H-Pyrazol-1-yl)methyl)-5-fluoro-4-methoxybenzo[d]isoxazol-3-yl)-7-methoxyspiro[chromane-4,1′-cyclobutane]-8-sulfonamide] showed an IC50 [1] of 0.5 to 2 nM.
`COc1ccc2c(c1S(=O)(=O)Nc1noc3cc(Cn4cccn4)c(F)c(OC)c13)OCCC21CCCC1` [Compound 73, N-(6-((1H-Pyrazol-1-yl)methyl)-5-fluoro-4-methoxybenzo[d]isoxazol-3-yl)-7-methoxyspiro[chromane-4,1′-cyclopentane]-8-sulfonamide] showed an IC50 [1] of 0.5 to 2 nM.
With `COc1ccc2c(c1S(=O)(=O)Nc1noc3cc(Cn4cccn4)cc(OC)c13)OCCC2(F)F` [Compound 102, N-(6-((1H-Pyrazol-1-yl)methyl)-4-methoxybenzo[d]isoxazol-3-yl)-4,4-difluoro-7-methoxychromane-8-sulfonamide] the IC50 [1] was 0.5 to 2 nM.
For `COc1cc(Cn2cccn2)cc2onc(NS(=O)(=O)c3c(F)ccc4c3OCCC4(F)F)c12` [Compound 103, N-(6-((1H-Pyrazol-1-yl)methyl)-4-methoxybenzo[d]isoxazol-3-yl)-4,4,7-trifluorochromane-8-sulfonamide], the IC50 [1] was 10 to 50 nM.
Work on `COc1ccc2c(c1S(=O)(=O)Nc1noc3cc(Cn4cccn4)c(F)c(OC)c13)OCCC2(F)F` [Compound 104, N-(6-((1H-Pyrazol-1-yl)methyl)-5-fluoro-4-methoxybenzo[d]isoxazol-3-yl)-4,4-difluoro-7-methoxychromane-8-sulfonamide] yielded an IC50 [1] of less than 0.5 nM, an AUC(0-inf) ([2]; iv, i.v. 1 mg/kg) of 4.2 µg·h/mL and a clearance ([2]; iv, i.v. 1 mg/kg, read-out: CL (clearance rate)) of 0.239 L/h/kg. For the same molecule, the half-life ([2]; iv, i.v. 1 mg/kg) was 2.83 h, the Vd ([2]; iv, i.v. 1 mg/kg, read-out: Vdss (apparent volume of distribution)) was 0.705 L/kg and the AUC(0-inf) ([2]; po, p.o. 2 mg/kg) was 6.11 µg·h/mL. It also gave a bioavailability ([2]; po, p.o. 2 mg/kg, read-out: F (bioavailability)) of 72.7% and a half-life ([2]; po, p.o. 2 mg/kg) of 2.13 h.
Work on `COc1c(F)c(Cn2cccn2)cc2onc(NS(=O)(=O)c3c(F)ccc4c3OCCC4(F)F)c12` [Compound 105, N-(6-((1H-Pyrazol-1-yl)methyl)-5-fluoro-4-methoxybenzo[d]isoxazol-3-yl)-4,4,7-trifluorochromane-8-sulfonamide] yielded an IC50 [1] of 10 to 50 nM.
Work on `COc1ccc2c(c1S(=O)(=O)Nc1noc3cc(Cn4cccn4)c(F)c(OC)c13)OCC=C2C` [Compound 106, N-(6-((1H-Pyrazol-1-yl)methyl)-5-fluoro-4-methoxybenzo[d]isoxazol-3-yl)-7-methoxy-4-methyl-2H-chromene-8-sulfonamide] yielded an IC50 [1] of less than 0.5 nM.
Molecule `COc1ccc2c(c1S(=O)(=O)Nc1noc3cc(Cn4cccn4)c(F)c(OC)c13)OCCC2O` (stereo not drawn) [Compound 107, N-(6-((1H-Pyrazol-1-yl)methyl)-5-fluoro-4-methoxybenzo[d]isoxazol-3-yl)-4-hydroxy-7-methoxychromane-8-sulfonamide] has an IC50 [1] of 0.5 to 2 nM.
Molecule `COc1c(F)c(Cn2cccn2)cc2onc(NS(=O)(=O)c3ccccc3OC3CCC3)c12` [Compound 108, N-(6-((1H-Pyrazol-1-yl)methyl)-5-fluoro-4-methoxybenzo[d]isoxazol-3-yl)-2-cyclobutoxybenzenesulfonamide] has an IC50 [1] of 0.5 to 2 nM.
With `COc1ccc2c(c1S(=O)(=O)Nc1noc3cc(Cn4cccn4)c(F)c(OC)c13)OCCN2` [Compound 111, N-(6-((1H-Pyrazol-1-yl)methyl)-5-fluoro-4-methoxybenzo[d]isoxazol-3-yl)-7-methoxy-3,4-dihydro-2H-benzo[b][1,4]oxazine-8-sulfonamide] the IC50 [1] was less than 0.5 nM.
In the case of `COc1ccc2c(c1S(=O)(=O)Nc1noc3cc(Cn4cccn4)c(F)c(OC)c13)OCCN2Cc1ccccc1` [Compound 112, N-(6-((1H-Pyrazol-1-yl)methyl)-5-fluoro-4-methoxybenzo[d]isoxazol-3-yl)-4-benzyl-7-methoxy-3,4-dihydro-2H-benzo[b][1,4]oxazine-8-sulfonamide], the IC50 [1] is reported as 2 to 10 nM.
Molecule `COc1ccc2c(c1S(=O)(=O)Nc1noc3cc(Cn4cccn4)c(F)c(OC)c13)OCCN2CC(F)(F)F` [Compound 120, N-(6-((1H-Pyrazol-1-yl)methyl)-5-fluoro-4-methoxybenzo[d]isoxazol-3-yl)-7-methoxy-4-(2,2,2-trifluoroethyl)-3,4-dihydro-2/-benzo[b][1,4]oxazine-8-sulfonamide] has an IC50 [1] of 2 to 10 nM.
Work on `COc1cccc(OC)c1S(=O)(=O)Nc1noc2cc(Cn3cccn3)c(F)c(OC)c12` [PF-0128, reference compound] yielded an IC50 [1] of 0.5 to 2 nM.
Molecule `COc1cccc(OC)c1S(=O)(=O)Nc1noc2cc(Cn3cccn3)cc(OC)c12` [PF-9363, reference compound] has an IC50 [1] of 0.5 to 2 nM.

From patent US20260174778A1, “SULFONAMIDE COMPOUND, AND PREPARATION METHOD THEREFOR AND USE THEREOF” (SHANGHAI HENLIUS BIOTECH, INC., priority 2023, published 2026)
